# Reference: ChEMBL document CHEMBL2062364, “Discovery and optimization of new benzimidazole- and benzoxazole-pyrimidone selective PI3Kβ inhibitors for the treatment of phosphatase and TENsin homologue (PTEN)-deficient cancers” (J Med Chem, 2012)
# pIC50: −log10 of the molar value.
# Key:
# [1] = Drug metabolism in human liver microsomes; assay type: ADME, Microsome; details: read-out: Drug metabolism
# [2] = Drug metabolism in mouse liver microsomes; assay type: ADME, Microsome; details: read-out: Drug metabolism
# [3] = Thermodynamic solubility of the compound in phosphate buffer at pH 7.4 after 16 hrs by HPLC analysis; assay type: physicochemical; details: read-out: Therm_solubility
# [4] = biological target: T1, Phosphatidylinositol 4,5-bisphosphate 3-kinase catalytic subunit gamma isoform (Homo sapiens, UniProt P48736); assay: Inhibition of N-terminus poly-His tagged human PI3Kgamma expressed in baculovirus infected insect sf9 cells using PI(4,5)P2 as substrate preincubated with compound for 15 mins measured after 10 mins by HTRF assay
# T1 sequence (P48736 whole entry, canonical isoform): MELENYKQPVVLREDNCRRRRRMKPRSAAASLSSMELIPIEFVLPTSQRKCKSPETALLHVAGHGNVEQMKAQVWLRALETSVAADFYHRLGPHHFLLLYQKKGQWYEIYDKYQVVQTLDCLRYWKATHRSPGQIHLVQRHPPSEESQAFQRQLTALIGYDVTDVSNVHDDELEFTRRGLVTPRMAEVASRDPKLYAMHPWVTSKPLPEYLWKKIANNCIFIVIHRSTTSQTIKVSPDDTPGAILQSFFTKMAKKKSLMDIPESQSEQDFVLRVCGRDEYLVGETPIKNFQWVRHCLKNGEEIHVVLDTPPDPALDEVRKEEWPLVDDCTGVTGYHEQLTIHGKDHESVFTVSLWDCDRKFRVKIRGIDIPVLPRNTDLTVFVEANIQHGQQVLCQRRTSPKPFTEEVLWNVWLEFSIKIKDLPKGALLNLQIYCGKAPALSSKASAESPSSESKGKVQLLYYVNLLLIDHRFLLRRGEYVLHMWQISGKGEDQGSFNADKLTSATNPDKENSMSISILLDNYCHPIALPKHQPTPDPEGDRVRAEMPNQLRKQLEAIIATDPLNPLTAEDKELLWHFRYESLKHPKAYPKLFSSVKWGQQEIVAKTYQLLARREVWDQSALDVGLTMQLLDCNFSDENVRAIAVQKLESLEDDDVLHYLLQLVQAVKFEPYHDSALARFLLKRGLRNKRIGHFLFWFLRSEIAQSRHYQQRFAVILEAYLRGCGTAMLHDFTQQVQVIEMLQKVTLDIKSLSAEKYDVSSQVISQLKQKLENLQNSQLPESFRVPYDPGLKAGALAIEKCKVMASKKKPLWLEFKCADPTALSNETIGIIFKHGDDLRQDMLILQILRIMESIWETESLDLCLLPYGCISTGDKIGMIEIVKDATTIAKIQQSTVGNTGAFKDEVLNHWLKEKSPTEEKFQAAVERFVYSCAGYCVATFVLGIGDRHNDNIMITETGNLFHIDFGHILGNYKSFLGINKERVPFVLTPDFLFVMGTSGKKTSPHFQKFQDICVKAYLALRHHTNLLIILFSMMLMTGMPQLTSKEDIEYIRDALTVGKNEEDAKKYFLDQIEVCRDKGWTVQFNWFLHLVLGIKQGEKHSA
# [5] = biological target: T2, Phosphatidylinositol 4,5-bisphosphate 3-kinase catalytic subunit alpha isoform (Homo sapiens, UniProt P42336); assay: Inhibition of N-terminus poly-His tagged human PI3Kalpha expressed in baculovirus infected insect sf9 cells coexpressing p85alpha using PI(4,5)P2 as substrate preincubated with compound for 15 mins measured after 10 mins by HTRF assay
# T2 sequence (P42336 whole entry, canonical isoform): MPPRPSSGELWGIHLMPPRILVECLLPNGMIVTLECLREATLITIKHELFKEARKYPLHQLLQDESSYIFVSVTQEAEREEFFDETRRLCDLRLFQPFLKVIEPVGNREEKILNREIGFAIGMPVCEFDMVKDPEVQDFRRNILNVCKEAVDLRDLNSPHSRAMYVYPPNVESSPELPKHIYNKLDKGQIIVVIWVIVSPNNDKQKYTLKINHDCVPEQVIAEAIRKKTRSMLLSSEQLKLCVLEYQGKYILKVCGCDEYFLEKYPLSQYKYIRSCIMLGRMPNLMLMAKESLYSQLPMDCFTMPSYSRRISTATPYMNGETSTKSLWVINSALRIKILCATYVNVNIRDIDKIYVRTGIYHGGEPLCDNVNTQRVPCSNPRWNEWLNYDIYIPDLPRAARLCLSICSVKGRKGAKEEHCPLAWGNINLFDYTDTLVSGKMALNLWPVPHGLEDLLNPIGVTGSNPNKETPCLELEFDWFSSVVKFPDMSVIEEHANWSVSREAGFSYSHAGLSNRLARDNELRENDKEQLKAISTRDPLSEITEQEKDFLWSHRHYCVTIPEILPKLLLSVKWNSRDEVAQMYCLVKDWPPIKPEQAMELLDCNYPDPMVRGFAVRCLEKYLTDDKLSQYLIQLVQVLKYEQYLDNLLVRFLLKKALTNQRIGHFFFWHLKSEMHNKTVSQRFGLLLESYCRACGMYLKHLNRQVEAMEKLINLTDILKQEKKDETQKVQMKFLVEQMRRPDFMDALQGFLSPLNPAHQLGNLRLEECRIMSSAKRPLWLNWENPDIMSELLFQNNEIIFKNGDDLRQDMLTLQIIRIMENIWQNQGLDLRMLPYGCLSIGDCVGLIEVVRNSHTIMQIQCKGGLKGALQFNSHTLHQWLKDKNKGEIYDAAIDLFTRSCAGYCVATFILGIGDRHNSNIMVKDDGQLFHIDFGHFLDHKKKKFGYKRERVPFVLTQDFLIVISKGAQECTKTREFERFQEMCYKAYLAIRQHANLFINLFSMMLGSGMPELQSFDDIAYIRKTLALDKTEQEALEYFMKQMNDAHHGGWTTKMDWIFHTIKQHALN
# [6] = biological target: T3, Phosphatidylinositol 4,5-bisphosphate 3-kinase catalytic subunit delta isoform (Homo sapiens, UniProt O00329); assay: Inhibition of poly-His tagged human PI3Kdelta expressed in baculovirus infected insect sf9 cells coexpressing p85alpha using PI(4,5)P2 as substrate preincubated with compound for 15 mins measured after 10 mins by HTRF assay
# T3 sequence (O00329 whole entry): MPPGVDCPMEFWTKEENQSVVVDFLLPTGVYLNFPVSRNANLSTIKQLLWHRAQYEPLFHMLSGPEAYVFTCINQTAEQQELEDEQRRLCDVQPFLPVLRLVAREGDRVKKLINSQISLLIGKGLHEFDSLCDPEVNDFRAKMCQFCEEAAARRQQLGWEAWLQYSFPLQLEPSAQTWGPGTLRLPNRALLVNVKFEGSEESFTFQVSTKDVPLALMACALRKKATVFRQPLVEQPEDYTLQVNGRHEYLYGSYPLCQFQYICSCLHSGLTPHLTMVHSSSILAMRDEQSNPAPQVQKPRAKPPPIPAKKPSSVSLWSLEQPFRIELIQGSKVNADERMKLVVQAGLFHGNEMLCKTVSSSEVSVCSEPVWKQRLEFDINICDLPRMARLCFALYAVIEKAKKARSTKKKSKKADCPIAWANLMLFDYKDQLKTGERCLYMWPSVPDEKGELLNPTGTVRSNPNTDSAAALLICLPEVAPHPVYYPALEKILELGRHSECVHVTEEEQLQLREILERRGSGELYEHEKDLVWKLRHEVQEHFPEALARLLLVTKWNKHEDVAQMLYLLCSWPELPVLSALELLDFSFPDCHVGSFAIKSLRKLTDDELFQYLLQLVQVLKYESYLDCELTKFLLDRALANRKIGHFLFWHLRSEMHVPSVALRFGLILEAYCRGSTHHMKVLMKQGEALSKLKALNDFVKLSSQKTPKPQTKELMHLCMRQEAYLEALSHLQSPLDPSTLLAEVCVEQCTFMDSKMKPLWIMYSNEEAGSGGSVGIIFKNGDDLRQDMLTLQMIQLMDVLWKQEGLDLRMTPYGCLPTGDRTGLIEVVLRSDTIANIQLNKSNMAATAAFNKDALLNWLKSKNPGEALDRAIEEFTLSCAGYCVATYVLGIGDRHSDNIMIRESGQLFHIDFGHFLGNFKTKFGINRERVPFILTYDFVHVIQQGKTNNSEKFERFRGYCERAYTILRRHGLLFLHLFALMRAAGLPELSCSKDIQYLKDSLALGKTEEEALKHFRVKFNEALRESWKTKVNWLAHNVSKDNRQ
# [7] = biological target: T4, Phosphatidylinositol 4,5-bisphosphate 3-kinase catalytic subunit beta isoform (Homo sapiens, UniProt P42338); assay: Inhibition of human PI3Kbeta-mediated Akt phosphorylation at Ser473 residue expressed in PTEN-deficient human PC3 cells by chemiluminescence assay; assay type: cell-based, PC-3
# T4 sequence (P42338 whole entry, canonical isoform): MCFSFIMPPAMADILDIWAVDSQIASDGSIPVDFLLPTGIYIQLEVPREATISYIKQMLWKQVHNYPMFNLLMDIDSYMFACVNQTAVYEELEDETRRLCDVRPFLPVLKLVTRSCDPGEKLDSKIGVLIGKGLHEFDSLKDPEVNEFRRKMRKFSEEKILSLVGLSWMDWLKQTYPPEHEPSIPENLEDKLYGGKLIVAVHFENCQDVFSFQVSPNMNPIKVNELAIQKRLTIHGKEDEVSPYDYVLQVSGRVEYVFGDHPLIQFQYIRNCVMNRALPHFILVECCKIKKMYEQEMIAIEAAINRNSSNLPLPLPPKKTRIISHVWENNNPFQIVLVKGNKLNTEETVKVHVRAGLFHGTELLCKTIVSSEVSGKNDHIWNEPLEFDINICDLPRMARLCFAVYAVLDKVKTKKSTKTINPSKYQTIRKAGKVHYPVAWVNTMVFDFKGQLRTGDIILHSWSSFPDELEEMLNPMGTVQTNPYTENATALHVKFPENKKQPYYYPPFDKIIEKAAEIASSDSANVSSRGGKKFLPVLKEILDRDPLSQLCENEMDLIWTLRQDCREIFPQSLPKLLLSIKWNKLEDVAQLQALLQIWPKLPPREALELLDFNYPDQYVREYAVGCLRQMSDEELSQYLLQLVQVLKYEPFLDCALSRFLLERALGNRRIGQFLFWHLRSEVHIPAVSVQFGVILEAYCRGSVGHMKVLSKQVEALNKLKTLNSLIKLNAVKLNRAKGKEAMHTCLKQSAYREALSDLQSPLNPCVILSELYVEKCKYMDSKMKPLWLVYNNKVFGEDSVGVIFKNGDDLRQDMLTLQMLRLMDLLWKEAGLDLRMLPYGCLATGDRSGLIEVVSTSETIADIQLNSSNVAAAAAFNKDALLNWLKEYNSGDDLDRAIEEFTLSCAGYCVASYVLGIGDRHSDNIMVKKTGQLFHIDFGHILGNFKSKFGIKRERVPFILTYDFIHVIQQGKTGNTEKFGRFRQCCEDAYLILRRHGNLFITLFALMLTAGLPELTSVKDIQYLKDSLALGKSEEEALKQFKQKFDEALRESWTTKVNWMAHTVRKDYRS
# [8] = biological target: Serine/threonine-protein kinase mTOR (Homo sapiens, UniProt P42345); assay: Inhibition of mTOR
# Cytochrome P450 3A4 = Cytochrome P450 3A4 (Homo sapiens, UniProt P08684); assay: Inhibition of human recombinant CPY3A4
# Sequence of Cytochrome P450 3A4 (P08684 whole entry): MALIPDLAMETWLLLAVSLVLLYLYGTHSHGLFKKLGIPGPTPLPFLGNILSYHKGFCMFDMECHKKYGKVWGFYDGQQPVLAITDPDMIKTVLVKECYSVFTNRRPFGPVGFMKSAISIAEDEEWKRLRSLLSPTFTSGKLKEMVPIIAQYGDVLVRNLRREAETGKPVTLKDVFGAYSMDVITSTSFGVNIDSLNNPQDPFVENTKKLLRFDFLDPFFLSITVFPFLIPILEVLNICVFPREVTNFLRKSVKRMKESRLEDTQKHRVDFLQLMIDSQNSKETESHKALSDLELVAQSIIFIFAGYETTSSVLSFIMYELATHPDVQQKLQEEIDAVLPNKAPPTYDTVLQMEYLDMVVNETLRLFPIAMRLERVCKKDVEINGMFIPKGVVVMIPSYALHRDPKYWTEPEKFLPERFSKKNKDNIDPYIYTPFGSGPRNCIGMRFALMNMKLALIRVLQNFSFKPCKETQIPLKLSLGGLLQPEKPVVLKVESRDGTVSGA
# [9] = Apparent permeability of the compound across human Caco2 cells; assay type: ADME, cell-based; details: Caco-2
# [10] = biological target: T4, Phosphatidylinositol 4,5-bisphosphate 3-kinase catalytic subunit beta isoform; assay: Inhibition of N-terminus poly-His tagged human PI3Kbeta expressed in baculovirus infected insect […] cells coexpressing p85alpha using PI(4,5)P2 as substrate preincubated with compound for 15 mins measured after 10 mins by HTRF assay
# [11] = biological target: T2, Phosphatidylinositol 4,5-bisphosphate 3-kinase catalytic subunit alpha isoform; assay: Inhibition of human PI3Kalpha-mediated Akt phosphorylation at Ser473 residue expressed in human H460 cells after 0.5 to 2 hrs by Western blot analysis; assay type: cell-based
# [12] = Inhibition of mTORC2-mediated Akt phosphorylation at Ser473 residue in PTEN-deficient human PC3 cells after 2 hrs by Western blot analysis; assay type: cell-based; details: PC-3, 2 h
# [13] = biological target: T3, Phosphatidylinositol 4,5-bisphosphate 3-kinase catalytic subunit delta isoform; assay: Inhibition of human PI3Kdelta-mediated Akt phosphorylation at Ser473 residue expressed in mouse MEF-3T3 cells after 0.5 to 2 hrs by Western blot analysis; assay type: cell-based
# [14] = biological target: T1, Phosphatidylinositol 4,5-bisphosphate 3-kinase catalytic subunit gamma isoform; assay: Inhibition of human PI3Kgamma-mediated Akt phosphorylation at Ser473 residue expressed in mouse RAW264.7 cells after 0.5 to 2 hrs by Western blot analysis; assay type: cell-based
# [15] = biological target: T4, Phosphatidylinositol 4,5-bisphosphate 3-kinase catalytic subunit beta isoform; assay: Inhibition of human PI3Kbeta-mediated Akt phosphorylation at T308 residue expressed in PTEN-deficient human PC3 cells after 2 hrs by Western blot analysis; assay type: cell-based, PC-3
SMILES,metabolised [1] [%],metabolised [2] [%],solubility thermodynamic at 16 h [3] [µM],pIC50 [4],pIC50 [5],pIC50 [6],pIC50 [7],pIC50 [8],pIC50 (Cytochrome P450 3A4),Papp [9] [×10⁻⁶ cm/s],pIC50 [10],pIC50 [11],pIC50 [12],pIC50 [13],pIC50 [14],pIC50 [15]
CCn1c(Cc2nc(N3CCOCC3)cc(=O)[nH]2)nc2ccccc21,60,48,221,5.08,6.00,6.65,7.59,< 5.00,< 4.40,0.5,7.14,,,,,
O=c1cc(N2CCOCC2)nc(Cc2nc3c(-c4ccccc4)cccc3[nH]2)[nH]1,78,51,3,< 5.00,5.26,6.74,7.19,< 5.00,< 4.40,0.1,8.00,,,,,
Cc1cc(C(C)Nc2ccccc2)c2nc(N3CCOCC3)cc(=O)n2c1 (stereo not drawn),,,,< 5.00,< 5.00,6.07,,,,,,< 6.00,8.00,6.60,< 6.00,
O=c1cc(N2CCOCC2)nc(Cc2nc3cc(F)ccc3o2)[nH]1,47,23,3,< 5.00,< 5.00,6.07,7.59,< 5.00,< 4.40,16,7.34,,,,,
O=c1cc(N2CCOCC2)nc(Cc2nc3ccccc3n2-c2ccccc2)[nH]1,98,100,397,< 5.00,5.17,7.44,8.10,< 5.00,< 4.40,4.4,7.12,,,,,
O=c1cc(N2CCOCC2)nc(Cc2nc3ccccc3o2)[nH]1,41,7,160,< 5.00,< 5.00,6.11,7.21,< 5.00,< 4.40,19.9,7.09,,,,,
Cc1cc(C(C)Nc2ccccc2)c2oc(N3CCOCC3)cc(=O)c2c1 (stereo not drawn),,,,,,,8.52,,,,7.55,,8.52,,,8.52
O=c1cc(N2CCOCC2)nc(Cc2nc3cccc(-c4ccccc4)c3o2)[nH]1,57,61,3,< 5.00,< 5.00,5.93,6.75,< 5.00,< 4.40,32.3,7.05,,,,,
O=c1cc(N2CCOCC2)nc(Cc2nc3c(-c4ccccc4)c(F)ccc3o2)[nH]1,18,17,15,< 5.00,< 5.00,6.82,8.22,< 5.00,< 4.40,37.1,8.10,,,,,
Cn1c(Cc2nc(N3CCOCC3)cc(=O)[nH]2)nc2cc(F)ccc21,39,20,3,< 5.00,< 5.00,6.07,7.80,< 5.00,< 4.40,3.1,7.09,,,,,
Cn1c(Cc2nc(N3CCOCC3)cc(=O)[nH]2)nc2cccc(-c3ccccc3)c21,57,55,2,< 5.00,5.34,6.74,7.77,< 5.00,< 4.40,3.9,7.22,,,,,
O=c1cc(N2CCOCC2)nc(Cc2nc3ccc(F)cc3[nH]2)[nH]1,69,0,76,< 5.00,< 5.00,6.66,7.39,< 5.00,< 4.40,0.2,7.52,,7.39,,,7.00
